We go through 18 compounds from patent publication US20230002393A1, “CDK KINASE INHIBITOR” (BEIJING BENICALL BIOTECH CO., LTD., priority 2019, published 2023).

In one test the target is T1, CDK6/CyclinD1 (Homo sapiens, UniProt Q00534).
T1 construct: purchased Carna 04-114
Nature of the test: In vitro cell-free CDK6/CyclinD1 kinase activity assay (TR-FRET). It counts as biochemical. To be noted: ATP at Km. In short, it runs like this:
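TR-FRET readout: reaction stopped with EDTA-containing detection buffer holding peptide antibody and Sa-XL665, 1 h at room temperature, then 665/615 nm emission ratio (excitation 330 nm) taken as activity. 8-10 compound concentrations from DMSO stocks at 200× working concentration; IC50 fitted versus no-inhibitor and no-enzyme controls.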

The next test has as its system MCF-7 cells. As to the kind of experiment: Cell viability assay, MCF-7 cells (CellTiter-Glo, 168 h). The class given is cell-based. To be noted: Homo sapiens, MCF7. The method in brief:
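MCF-7 cells (about 3,000/well) were incubated with compound at 8 concentrations for 168 h at 37 °C, 5% CO2. Viability was read by CellTiter-Glo luminescence, and IC50 intervals were derived from survival rates.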

pIC50: −log10 of the molar value.

T1 sequence (Q00534 whole entry): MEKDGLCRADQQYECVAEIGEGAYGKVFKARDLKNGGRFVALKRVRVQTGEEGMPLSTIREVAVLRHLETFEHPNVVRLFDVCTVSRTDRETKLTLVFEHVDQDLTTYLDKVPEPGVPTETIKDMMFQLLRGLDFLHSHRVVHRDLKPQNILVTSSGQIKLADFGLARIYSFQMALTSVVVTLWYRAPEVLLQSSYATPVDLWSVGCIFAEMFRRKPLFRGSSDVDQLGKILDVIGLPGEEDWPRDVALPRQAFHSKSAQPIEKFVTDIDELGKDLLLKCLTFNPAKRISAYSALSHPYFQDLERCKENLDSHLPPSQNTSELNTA
T1 sequence (P24385 whole entry partner): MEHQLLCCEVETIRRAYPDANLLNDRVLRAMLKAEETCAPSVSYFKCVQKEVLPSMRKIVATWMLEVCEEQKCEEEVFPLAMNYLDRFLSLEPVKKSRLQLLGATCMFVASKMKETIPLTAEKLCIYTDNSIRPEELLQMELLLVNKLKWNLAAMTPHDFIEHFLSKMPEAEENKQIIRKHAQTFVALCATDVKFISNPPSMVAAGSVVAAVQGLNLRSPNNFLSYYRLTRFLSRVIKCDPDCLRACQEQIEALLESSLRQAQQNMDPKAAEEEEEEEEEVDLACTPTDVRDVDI

With `[2H]C([2H])([2H])N(C(=O)c1cc2cnc(Nc3ccc(N4CCN(C([2H])([2H])C([2H])([2H])[2H])CC4)cn3)nn2c1C1=CCCC1)C([2H])([2H])[2H]` [Example 115], the values for the negative-log IC50 (pIC50) against CDK6/CyclinD1 and with MCF-7 cells were above 7.00 and above 6.30, respectively.
The like results for `[2H]C([2H])([2H])N(C(=O)c1cc2cnc(Nc3ccc(N4CCNCC4)cn3)nn2c1-c1ccccc1)C([2H])([2H])[2H]` [Example 116] were, in that order, above 7.00 and above 6.30.
Consider `[2H]C([2H])([2H])N(C(=O)c1cc2cnc(Nc3ccc(N4CCNCC4)cn3)nn2c1-c1ccc(OC)cc1)C([2H])([2H])[2H]` [Example 117], for which the figures for the pIC50 against CDK6/CyclinD1 and in the test with MCF-7 cells were above 7.00 and above 6.30, respectively.
Turning to `[2H]C([2H])([2H])N(C(=O)c1cc2cnc(Nc3ccc(N4CCN(CC)CC4)cn3)nn2c1C1=CCCC1)C([2H])([2H])[2H]` [Example 118], the negative-log IC50 (pIC50) against CDK6/CyclinD1 was above 7.00; in the test with MCF-7 cells it was above 6.30.
On to `[2H]C([2H])([2H])N(C(=O)c1cc2cnc(Nc3ccc(N4CCN(C)CC4)cn3)nn2c1C1=CCOCC1)C([2H])([2H])[2H]` [Example 119], for which the pIC50 against CDK6/CyclinD1 is above 7.00; in the test with MCF-7 cells, above 6.30.
The corresponding values for `[2H]C([2H])([2H])N(C(=O)c1cc2cnc(Nc3ccc(N4CCN(C)CC4)cn3)nn2c1-c1ccccc1)C([2H])([2H])[2H]` [Example 120] are above 7.00 and above 6.30.
As to `[2H]C([2H])([2H])N(C(=O)c1cc2cnc(Nc3ccc(N4CCN(C)CC4)cn3)nn2c1-c1ccc(OC)cc1)C([2H])([2H])[2H]` [Example 121], the negative logarithm of the IC50 (pIC50) against CDK6/CyclinD1 was above 7.00; in the test on MCF-7 cells, above 6.30.
In the case of `[2H]C([2H])([2H])N(C(=O)c1cc2cnc(Nc3ccc(N4CCNCC4)cn3)nn2c1C1=CCOCC1)C([2H])([2H])[2H]` [Example 122], the negative-log IC50 (pIC50) is above 7.00 at CDK6/CyclinD1 and above 6.30 with MCF-7 cells.
As to `[2H]C([2H])([2H])N1CCN(c2ccc(Nc3ncc4cc(C(=O)N(C([2H])([2H])[2H])C([2H])([2H])[2H])c(-c5ccccc5)n4n3)nc2)CC1` [Example 123], the figures for the pIC50 against CDK6/CyclinD1 and in the test on MCF-7 cells were above 7.00 and above 6.30, respectively.
The corresponding values for `[2H]C([2H])([2H])N1CCN(c2ccc(Nc3ncc4cc(C(=O)N(C([2H])([2H])[2H])C([2H])([2H])[2H])c(-c5ccc(OC)cc5)n4n3)nc2)CC1` [Example 124] are above 7.00 and above 6.30.
Turning to `[2H]C([2H])([2H])N1CCN(c2ccc(Nc3ncc4cc(C(=O)N(C([2H])([2H])[2H])C([2H])([2H])[2H])c(-c5ccc(F)cc5)n4n3)nc2)CC1` [Example 125], the values for the pIC50 against CDK6/CyclinD1 and with MCF-7 cells were above 7.00 and above 6.30, respectively.
Take `[2H]C([2H])([2H])N1CCN(c2ccc(Nc3ncc4cc(-c5cnn(C)c5)c(C5=CCCC5)n4n3)nc2)CC1` [Example 126]: the pIC50 against CDK6/CyclinD1 is above 7.00; with MCF-7 cells, above 6.30.
Turning to `[2H]C([2H])([2H])N1CCN(c2ccc(Nc3ncc4cc(C(=O)N(C([2H])([2H])[2H])C([2H])([2H])[2H])c(-c5ccc(Cl)cc5)n4n3)nc2)CC1` [Example 127], the negative logarithm of the IC50 (pIC50) was above 7.00 against CDK6/CyclinD1 and above 6.30 in the test with MCF-7 cells.
The corresponding values for `CP(C)(=O)c1ccc(Nc2ncc3cc(C#N)c(Br)n3n2)cc1` [Reference Example 128, reference compound] are 5.52 to 6.00 and below 5.00.
Regarding `Cc1noc(C)c1-c1c(-c2cnn(C)c2)c(-c2c(C)noc2C)n2nc(Nc3ccc(N4CCNCC4)cn3)ncc12` [Reference Example 131, reference compound], the negative logarithm of the IC50 (pIC50) against CDK6/CyclinD1 is below 5.52; in the test with MCF-7 cells it was below 5.00.
Consider `COC(=O)c1cc2cnc(Nc3ccc(N4CCNCC4)cn3)nn2c1-c1cccc2cccnc12` [Reference Example 132, reference compound], for which the results for the negative-log IC50 (pIC50) at CDK6/CyclinD1 and in the test with MCF-7 cells were below 5.52 and below 5.00, respectively.
`COC(=O)c1cc2cnc(Nc3ccc(N4CC5(CNC5)C4)cn3)nn2c1-c1cccc2cccnc12` [Reference Example 133, reference compound]: the results for the pIC50 against CDK6/CyclinD1 and in the test on MCF-7 cells were below 5.52 and below 5.00, respectively.
The corresponding values for `Cc1noc(C)c1-c1c(C(=O)N(C)C)cc2cnc(Nc3ccc(N4CC5(CCNC5)C4)cn3)nn12` [Reference Example 134, reference compound] are 5.52 to 6.00 and below 5.00.
